Test results taken from EP1246824B1, “CARBOXAMIDE DIAZEPIN DERIVATIVES, PREPARATION METHOD, USE AS MEDICINES, PHARMACEUTICAL COMPOSITIONS AND USE THEREOF” (Aventis Pharma S.A., priority 1999, dated 2001).
Like-named read-outs stand apart in the source and are kept apart here.

What was measured:
Format in all cases: biochemical
Papain = target: T1, Papain (Carica papaya, UniProt P00784); test: Inhibition of Papain (protocol as for Cathepsine K)
T1 construct: purchased Sigma
T1 sequence (P00784 134-345): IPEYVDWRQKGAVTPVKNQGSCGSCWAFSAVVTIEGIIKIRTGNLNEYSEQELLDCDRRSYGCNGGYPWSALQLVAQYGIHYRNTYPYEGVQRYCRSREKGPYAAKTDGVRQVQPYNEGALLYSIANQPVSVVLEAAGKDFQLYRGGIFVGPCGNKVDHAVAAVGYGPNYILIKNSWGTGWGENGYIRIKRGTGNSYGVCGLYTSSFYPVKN
Method: (§1) Les produits à tester (10 mM) sont dilués à 1 mM en DMSO et repartis dans des plaques 96 puits polystyrène Nunc à raison de 2 µl par puits. La colonne 12 de la plaque est réservée pour les contrôles et reçoit donc […] de DMSO (sans produits) par puits. Les plaques sont conservées à -80°C et décongelées le jour de l'expérience.
(§2) Les produits sont dilués à 50 µM par addition de 38 µl de tampon réaction : acétate de sodium 100 mM, EDTA 5 mM, DTT 1 mM pH 5,5. L'addition ainsi que tous les pipetages suivant sont réalisés par un pipeteur 96 cônes CybiWell. Après mélange des solutions, chaque produit est transféré dans 2 puits (duplicates) d'une plaque 384 puits noire Greiner à raison de 10 µl par puits. On peut donc tester 2 plaques 96 dans une plaque 384.
(§3) Une solution de substrat à 50 µM, Z-Val-arg-AMC (Calbiochem), est préparée dans le tampon réaction . Le substrat, est ensuite distribué dans tous les puits de la plaque 384 (20 µl par puits).
(§4) Une solution de Cathepsine K à 12,5 ng/ml est préparée dans le tampon réaction et distribuée dans tous les puits de la plaque 384 (20 µl par puits) exceptés les 16 puits servant de contrôles 100 % d'inhibition (colonne 23 et 24, lignes I à P) qui recevront 20 µl de tampon sans enzyme. Les contrôles […] d'inhibition sont réalisés dans les colonnes 23 et 24, lignes A à H qui ne contiennent pas de produits.
(§5) Les plaques sont ensuite incubées 2H à température ambiante, puis lues sur Fluoroskan (Labsystems) : excitation 390 nm; émission 460 nm
(§6) Les concentrations finales de chacun des réactifs sont : Produits 10 µM, Substrat 20 µM, enzyme 5 ng/ml.
(§7) Les % d'inhibition pour chacun des produits sont calculés en utilisant les points à 0 et 100 % d'inhibition de chaque plaque comme références. Les produits présentant une inhibition significative sont ensuite retestés sur une gamme de concentration allant de 50 à 0,5µM pour déterminer une IC50.
Etude de l'inhibition de Papain:
Protocole identique à celui de Cathepsine K exceptés : • Papain (Sigma), solution à 50 ng/ml, concentration finale 20 ng/ml • Incubation 30 min à température ambiante

Cathepsine K = target: T2, Cathepsine K (Homo sapiens, UniProt P43235); test: Inhibition of Cathepsine K (fluorogenic substrate Z-Val-arg-AMC); conditions: substrate Z-Val-arg-AMC 20 µM, enzyme 5 ng/ml, pH 5.5, 2 h at room temperature; concentration range 50 to 0.5 µM; read-out: IC50 µM Cathepsin K
T2 sequence (P43235 115-329): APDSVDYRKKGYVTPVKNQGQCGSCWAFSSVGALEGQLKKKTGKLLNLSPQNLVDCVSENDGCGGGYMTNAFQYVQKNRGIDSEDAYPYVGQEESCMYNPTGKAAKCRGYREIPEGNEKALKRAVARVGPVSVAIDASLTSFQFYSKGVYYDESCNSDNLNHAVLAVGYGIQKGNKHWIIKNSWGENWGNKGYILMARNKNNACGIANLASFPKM
Method: Etude de l'inhibition de Cathepsine K :
as §1, §2, §3, §4, §5, §6, §7

Cathepsine B = target: T3, Cathepsine B (Homo sapiens, UniProt P07858); test: Inhibition of Cathepsine B (fluorogenic substrate Z-arg-arg-AMC); conditions: substrate Z-arg-arg-AMC 20 µM, enzyme 16 ng/ml, 1 h at room temperature; read-out: IC50 µM Cathepsin B
T3 construct: purchased Calbiochem
Method: as §1, §2, §3, §4, §5, §6, §7
Etude de l'inhibition de Cathepsine B: […]

Compound | IC50 (Cathepsine K) | IC50 (Cathepsine B) | further results
CC(C)(C)Oc1ccc(C[C@H](NC(=O)[C@@H]2CCCN3C(=O)CC[C@H](NC(=O)Nc4ccc(Oc5ccccc5)cc4)C(=O)N23)C(=O)C=[N+]=[N-])cc1 [Exemple 54, 9-[(9S)-[[(4-phenoxyphenyl)amino]carbonyl]amino]-N-[(2S)-4-diazo-1-[4-[(1,1-dimethyl)ethoxy]phenyl]-3-oxo-2-butyl]-6H-(1S)-pyridazino[1,2-a][1,2]diazepine-1-carboxamide] |  |  | IC50 (Papain): 15 µM
C=CCOC(=O)CC[C@H](NC(=O)[C@@H]1CCCN2C(=O)CC[C@H](NC(=O)NC3CCCCC3)C(=O)N12)C(=O)COC(=O)c1c(Cl)cccc1Cl [Exemple 122, (4S) 6-[(2,6-dichlorobenzoyl)oxy] -4-[[[(1S,9S)-9-[[(cyclohexylamino)carbonyl]amino]-octahydro-6,10-dioxo-6H-pyridazino[1,2-a][1,2]diazepine-1-yl]carbonyl]amino]-5-oxo-Hexanoatede (2-propenyle)] | 18 µM | 0.7 µM | 
C=CCOC(=O)CC[C@H](NC(=O)[C@@H]1CCCN2C(=O)CC[C@H](NC(=O)NCCc3cccs3)C(=O)N12)C(=O)CSc1nnnn1-c1ccccc1 [Exemple 138, (4S) 6-[(1-phenyl-1H-tetrazol-5-yl)thio]-4-[[[(1S,9S)-9-[[[[2-(thien-2-yl)-ethyl]amino]carbonyl]amino]-octahydro-6,10-dioxo-6H-pyridazino[1,2-a][1,2]diazepine-1-yl]carbonyl]amino]-5-oxo-Hexanoatede (2-propenyle)] |  |  | IC50 (Papain; enzyme 20 ng/ml, 30 min at room temperature, read-out: IC50 µM Papain): 8 µM
C=CCOC(=O)CC[C@H](NC(=O)[C@@H]1CCCN2C(=O)CC[C@H](NC(=O)NCCc3cccs3)C(=O)N12)C(=O)COC(=O)c1c(Cl)cccc1Cl [Exemple 141, (4S) 6-[(2,6-dichlorobenzoyl)oxy]-4-[[[(1S,9S)-9-[[[[2-(thien-2-yl)-ethyl]amino]carbonyl]amino]-octahydro-6,10-dioxo-6H-pyridazino[1,2-a][1,2]diazepine-1-yl]carbonyl]amino]-5-oxo-Hexanoatede (2-propenyle)] | 9 µM | 0.7 µM | 
C=CCOC(=O)CC[C@H](NC(=O)[C@@H]1CCCN2C(=O)CC[C@H](NS(C)(=O)=O)C(=O)N12)C(=O)COC(=O)c1c(Cl)cccc1Cl [Exemple 150, (4S) 6-[(2,6-dichlorobenzoyl)oxy]-4-[[[(1S,9S)-9-[(methylsulfonyl)amino]-octahydro-6,10-dioxo-6H-pyridazino[1,2-a] [1,2]diazepine-1-yl]carbonyl]amino]-5-oxo-Hexanoatede (2-propenyle)] | 6 µM | 0.6 µM | 
COC(=O)CCCC(=O)OCC(=O)[C@H](Cc1ccccc1)NC(=O)[C@@H]1CCCN2C(=O)CC[C@H](NC(=O)Nc3ccc(Oc4ccccc4)cc3)C(=O)N12 [Exemple 217] |  |  | IC50 (Papain; read-out: IC50 µM Papain, enzyme 20 ng/ml, 30 min at room temperature): 7 µM
CC(C)C[C@H](NC(=O)[C@@H]1CCCN2C(=O)CC[C@H](NS(=O)(=O)c3ccc(C(F)(F)F)cc3)C(=O)N12)C(=O)C=[N+]=[N-] [Exemple 347, 9-[(9S)-[[4-(trifluoromethyl)phenyl]sulfonyl]amino]-N-((3S)-1-diazo-5-methyl-2-oxo-3-hexyl)-octahydro-6,10-dioxo-6H-(1S)-pyridazino[1,2-a][1,2]diazepine-1-carboxamide] | 12 µM |  | 
(4S) 6-diazo-4-[[[(1S,9S)-9-[[[[2-(p-2-yl)-ethyl]amino]carbonyl]amino]-octahydro-6,10-dioxo-6H-pyridazino[1,2-a][1,2]diazepine-1-yl]carbonyl]amino]-5-oxo-Hexanoate de (2-propenyle) [Exemple 44] | 2 µM |  | 
